Reference: PubChem BioAssay AID449758 (The Scripps Research Institute Molecular Screening Center, 2010)
Calls of active or inactive are those of the source. No rule for the calls is given here.

Test system: Human cells, IFNg-induced IRF-1 mRNA, SYBR qPCR
Test: inhibitors of IFNg-induced IRF-1 mRNA expression, late-stage follow-up, counter-screen for STAT1 inhibitor project, cell-based, SYBR qPCR, powder samples (AID 449758)
Conditions: at 10 µM; active compounds read low

Row | SMILES | fold change
1 | CCOC(=O)N1CCN(C(=O)c2ccc(-n3c(=S)[nH]c4ccccc4c3=O)cc2)CC1 | 0.883 (inactive)
2 | O=c1cc(CSc2nc3ccccc3c(=O)[nH]2)c2ccc(O)cc2o1 | 1.36 (inactive)
3 | Cc1ccc(-n2nc(C(=O)O)c3ccccc3c2=O)cc1C | 0.764 (inactive)
4 | CCOC(=O)C(=CNc1cc(C)nn1-c1ccccc1)C(=O)OCC | 0.997 (inactive)
5 | Cc1cc(=O)n(C(NC(=O)c2ccccc2)C(=O)c2ccccc2)cn1 (stereo not given) | 1.24 (inactive)
